As a reminder, the IC50 is the point on the concentration scale where inhibition reaches its midpoint.

The values that follow come from patent US9617257B2, “Fused pyridine derivatives useful as c-Met tyrosine kinase inhibitors” (BETA PHARMACEUTICALS CO., LTD., priority 2012, dated 2017).

Like-named read-outs stand apart in the source and are kept apart here.

In one test the test system is NCI-H1975 cells. The test can be described thus: Cellular proliferation analysis (MTS assay), NCI-H1975. The note with it: Homo sapiens, read-out: IC50 NCI-H1975. The test is classed as cell-based. As to the method: (§1) Cell proliferation analysis was conducted by the MTS assay protocol. Briefly, U87-MG cells will be cultured in EMEM medium, EBC-1 cells and SNU-5 cells will be cultured in MEM medium, MKN45 cells, NCI-H1975 cells and NCI-H1993 cells will be cultured in RPMI1640 medium, A549 cells will be cultured in McCoy's 5a medium. […] All culture media will be purchased from GIBCO (USA). The cells will be harvested respectively during the logarithmic growth period and counted with hemocytometer. […] Add […] cell suspensions to 96-well plates (triplicates for each cell concentration), the final cell densities are 2×10^4 or 1×10^4 or 5×10^3 cells/well. The density of 5×10^3 cells/well will be used for our first test. The appropriate cell density will be determined and adjusted according to the results of our first test. The next day, dissolve the test article or positive drugs with DMSO or PBS as stock solution. Dispense 2 μl drug solution in 1 ml culture media. Add 200 μl drug media into 96-well plates (triplicate for each drug concentration) after discard the old media. The final concentration of drug will be 0, 0.03, 0.1, 0.3, 1, 3, 10, 30 or 100 μM. The plates will be cultured for another 7 days, then measured by means of MTS assay. Prepare MTS/PMS solution immediately prior to use, pipet 20 μl of the mixture into each well of the 96 well assay plate containing 100 μl culture media. (The final reaction volume is 120 μl). Incubate the plate for 1-4 hours at 37° C. in a humidified, 5% CO2 atmosphere. Record the absorbance at 490 nm using Victor X5 microplate spectrophotometer.

The subject of a further test is EBC-1 cells. The test can be described thus: Cellular proliferation analysis (MTS assay), EBC-1. The test is classed as cell-based. The note with it: Homo sapiens, read-out: IC50 EBC-1. How it is done: as §1
The test system of a further test is MKN45 cells. The test can be described thus: Cellular proliferation analysis (MTS assay), MKN45. Type of test: cell-based. To be noted: Homo sapiens, MKN-45, 168 h, read-out: IC50 MKN45. How it is done:
as §1

The subject of another test is U87-MG cells. Description: Cellular proliferation analysis (MTS assay), U87-MG. Type of test: cell-based. To be noted: Homo sapiens, U-87 MG, 168 h, read-out: IC50 U87-MG. As to the method: as §1
A general note: Tetrazolium assays rely on reduction of a dye to a coloured formazan, in cell work by metabolically active cells.

The next test deals with NCI-H1993 cells. The test can be described thus: Cellular proliferation analysis (MTS assay), NCI-H1993. Type of test: cell-based. The note with it: Homo sapiens, read-out: IC50 NCI-H1993. How it is done:
as §1

For a further test, the system named is SNU-5 cells. Description: Cellular proliferation analysis (MTS assay), SNU-5. Type of test: cell-based. The note with it: Homo sapiens, SNU-5, 168 h, read-out: IC50 SNU5. How it is done: as §1
For another test, the system named is A549 cells. The test can be described thus: Cellular proliferation analysis (MTS assay), A549. Type of test: cell-based. The note with it: Homo sapiens, read-out: IC50 A549. As to the method:
as §1

The target of a further test is T1, Met (h) (Homo sapiens, UniProt P08581).
T1 construct: purchased Millipore
The test can be described thus: Met (h) kinase assay (33P-ATP filter assay, performed by Millipore). Type of test: biochemical. To be noted: 0.2 μM test compound; remaining activity relative to DMSO control set to 100%; duplicate. How it is done:
(specific activity approx. 500 cpm/pmol, concentration as required) and 0.2 μM test compound. The reaction is initiated by the addition of the MgATP mix. After incubation for 40 minutes at room temperature, the reaction is stopped by the addition of 3% phosphoric acid solution. 10 μL of the reaction is then spotted onto a P30 filtermat and washed three times for 5 minutes in 75 mM phosphoric acid and once in methanol prior to drying and scintillation counting. This assay is performed by Millipore. The experiment is carried out in duplicate. The value for the control sample (DMSO) was set to 100%, and the values for the compound-treated samples were expressed as activity relative to the control sample.

In another test the test system is MKN45 tumors. The note with it: oral gavage, vs vehicle control. How it is done: (§2) Human non small cell lung cancer cells A549, human gastric cancer cells MKN45, and human lung squamous cell carcinoma cells EBC-1 are expanded in culture, harvested, and injected subcutaneously onto the right flank of BALB/c nude mice. Testing compound is prepared in an appropriate vehicle and is administered by oral gavage when tumors are established (6-10 days after implant). Tumor response is determined by tumor volume measurement performed twice a week during the course of treatment. Tumor volume inhibition (% growth inhibition) is calculated by comparing treated groups to vehicle control group. Body weight is taken as a general measurement of toxicity.

A further test concerns EBC-1 tumors. To be noted: oral gavage, vs vehicle control. How it is done:
as §2

The test system of another test is A549 tumors. To be noted: oral gavage, vs vehicle control. As to the method:
as §2

[1] abbreviates: 168 h, NCI-H1975 cells, 7 days, MTS.
Setting [2] is: 168 h, EBC-1 cells, 7 days, MTS.
[3] abbreviates: 168 h, NCI-H1993 cells, 7 days, MTS.

T1 sequence (P08581 25-1390): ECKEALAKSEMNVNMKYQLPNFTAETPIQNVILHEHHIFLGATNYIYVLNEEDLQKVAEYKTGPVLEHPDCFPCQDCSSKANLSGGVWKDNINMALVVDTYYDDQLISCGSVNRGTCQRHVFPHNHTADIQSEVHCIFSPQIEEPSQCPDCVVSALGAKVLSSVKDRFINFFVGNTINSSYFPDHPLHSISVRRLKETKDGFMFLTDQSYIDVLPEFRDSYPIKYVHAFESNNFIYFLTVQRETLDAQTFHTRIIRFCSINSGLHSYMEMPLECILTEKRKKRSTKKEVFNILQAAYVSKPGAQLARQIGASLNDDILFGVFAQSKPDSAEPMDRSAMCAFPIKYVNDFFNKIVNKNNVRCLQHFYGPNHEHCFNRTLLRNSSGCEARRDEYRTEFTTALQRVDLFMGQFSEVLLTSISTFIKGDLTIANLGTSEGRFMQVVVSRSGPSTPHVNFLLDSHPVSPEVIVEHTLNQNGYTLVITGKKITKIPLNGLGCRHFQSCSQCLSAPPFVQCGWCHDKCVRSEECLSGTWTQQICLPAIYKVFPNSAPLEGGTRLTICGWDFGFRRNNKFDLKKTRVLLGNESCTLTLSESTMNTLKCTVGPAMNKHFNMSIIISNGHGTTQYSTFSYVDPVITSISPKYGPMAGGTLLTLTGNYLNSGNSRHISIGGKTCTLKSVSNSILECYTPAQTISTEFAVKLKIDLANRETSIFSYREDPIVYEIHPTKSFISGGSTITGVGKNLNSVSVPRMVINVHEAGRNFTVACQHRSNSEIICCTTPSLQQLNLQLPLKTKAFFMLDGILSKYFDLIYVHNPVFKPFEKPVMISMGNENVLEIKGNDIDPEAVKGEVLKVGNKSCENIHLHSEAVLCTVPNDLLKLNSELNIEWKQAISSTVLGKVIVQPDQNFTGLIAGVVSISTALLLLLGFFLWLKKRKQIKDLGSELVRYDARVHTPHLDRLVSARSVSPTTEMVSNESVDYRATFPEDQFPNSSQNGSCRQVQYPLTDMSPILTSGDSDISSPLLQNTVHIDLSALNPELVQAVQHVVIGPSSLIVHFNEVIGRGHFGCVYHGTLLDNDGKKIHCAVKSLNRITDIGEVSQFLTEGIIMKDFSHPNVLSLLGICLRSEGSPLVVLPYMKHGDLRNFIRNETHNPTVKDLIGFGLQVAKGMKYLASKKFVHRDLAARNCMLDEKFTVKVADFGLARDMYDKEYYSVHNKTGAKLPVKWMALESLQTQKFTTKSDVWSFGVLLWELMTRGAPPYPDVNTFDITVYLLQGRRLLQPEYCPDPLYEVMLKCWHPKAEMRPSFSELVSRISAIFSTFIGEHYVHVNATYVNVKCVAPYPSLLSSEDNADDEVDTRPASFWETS

For `O=C(Nc1ccc(F)cc1)C1(C(=O)Nc2ccc(Oc3ccnc4c3CCN4)c(F)c2)CC1` [Example 12], the IC50 in the test on NCI-H1975 cells (setting [1]) was found to be 23.2 µM; in the test with EBC-1 cells (setting [2]) it was 11.1 µM; in the test on MKN45 cells (MKN45 cells, 7 days, MTS), 11.5 µM; in the test with U87-MG cells (U87-MG cells, 7 days, MTS) it was 3.8 µM; in the test with NCI-H1993 cells (setting [3]), 9.2 µM; with SNU-5 cells (SNU5 cells, 7 days, MTS), 9.3 µM. In addition, the IC50 in the test on A549 cells (168 h, A549 cells, 7 days, MTS) amounted to 20.6 µM. Besides, the “Activity (control) %” value at Met (h) turned out to be 15%.
For `O=C(Nc1ccc(Oc2ccnc3c2CCN3)c(F)c1)c1cccn(-c2ccc(F)cc2)c1=O` [Example 7, N-(4-(2,3-dihydro-1H-pyrrolo[2,3-b]pyridin-4-yloxy)-3-fluorophenyl)-1-(4-fluorophenyl)-2-oxo-1,2-dihydropyridine-3-carboxamide], the IC50 with NCI-H1975 cells (setting [1]) was 17.8 µM; in the test on EBC-1 cells (setting [2]), 9.4 µM; with MKN45 cells (MKN45 cells, 7 days, MTS), 6.7 µM; with U87-MG cells (U87-MG cells, 7 days, MTS), 5.1 µM; in the test with NCI-H1993 cells (setting [3]) it was 4.6 µM; in the test on SNU-5 cells (SNU5 cells, 7 days, MTS), 7.8 µM. In addition, the IC50 in the test on A549 cells (168 h, A549 cells, 7 days, MTS) amounted to 23.3 µM. The “Activity (control) %” value at Met (h) was 11%.
In the case of `Cc1c(C(=O)Nc2ccc(Oc3ccnc4c3CCN4)c(F)c2)c(=O)n(-c2ccccc2)n1C` [Example 19, N-(4-(2,3-dihydro-1H-pyrrolo[2,3-b]pyridin-4-yloxy)-3-fluorophenyl)-1,5-dimethyl-3-oxo-2-phenyl-2,3-dihydro-1H-pyrazole-4-carboxamide], the “Activity (control) %” value on Met (h) came out at 51%.
On to `O=C(Nc1ccc(Oc2ccnc3c2OCCCN3)cc1)c1c[nH]cc(-c2ccc(F)cc2)c1=O` [Example 56, 5-(4-Fluoro-phenyl)-4-oxo-1,4-dihydro-pyridine-3-carboxylic acid [4-(6,7,8,9-tetrahydro-5-oxa-1,9-diaza-benzocyclohepten-4-yloxy)-phenyl]-amide], for which the IC50 was 14.3 µM in the test on NCI-H1975 cells (setting [1]); 0.1 µM in the test with EBC-1 cells (setting [2]); 1.2 µM in the test with MKN45 cells (MKN45 cells, 7 days, MTS); 4.7 µM with U87-MG cells (U87-MG cells, 7 days, MTS); 0.7 µM with NCI-H1993 cells (setting [3]); 1.7 µM in the test on SNU-5 cells (SNU5 cells, 7 days, MTS). Moreover, the IC50 in the test with A549 cells (168 h, A549 cells, 7 days, MTS) worked out at 18.1 µM. The “Activity (control) %” value on Met (h) was determined as 2%.
As to `O=C(Nc1ccc(Oc2ccnc3c2OCCN3)c(F)c1)c1c[nH]cc(-c2ccc(F)cc2)c1=O` [Example 3, N-(4-(3,4-dihydro-2H-pyrido[3,2-b][1,4]oxazin-8-yloxy)-3-fluorophenyl)-5-(4-fluorophenyl)-4-oxo-1,4-dihydropyridine-3-carboxamide], the 50% inhibitory concentration (IC50) in the test on NCI-H1975 cells (NCI-H1975, 168 h) worked out at 14.6 µM; in the test with EBC-1 cells (EBC-1, 168 h), 0.4 µM; with MKN45 cells, 6.2 µM; in the test with U87-MG cells it was 6.3 µM; with NCI-H1993 cells (NCI-H1993, 168 h), 1.5 µM; in the test on SNU-5 cells it was 3.1 µM. The IC50 in the test on A549 cells (A549, 168 h) was 20.1 µM. The “Activity (control) %” value on Met (h) was 6%.
Turning to `O=C(Nc1ccc(Oc2ccnc3c2CCN3)c(F)c1)c1c[nH]cc(-c2ccc(F)cc2)c1=O` [Example 1, N-(4-(2,3-dihydro-1H-pyrrolo[2,3-b]pyridin-4-yloxy)-3-fluorophenyl)-5-(4-fluorophenyl)-4-oxo-1,4-dihydropyridine-3-carboxamide], the IC50 is 13 µM in the test with NCI-H1975 cells (NCI-H1975, 168 h); 0.06 µM with EBC-1 cells (EBC-1, 168 h); 0.4 µM with MKN45 cells; 3.4 µM with U87-MG cells; 0.4 µM in the test with NCI-H1993 cells (NCI-H1993, 168 h); 0.9 µM in the test on SNU-5 cells. The IC50 in the test on A549 cells (A549, 168 h) was 15.4 µM. Further, the “growth inhibition of MKN45 tumors” value came out at 38.9% with MKN45 tumors (60 mg/kg (qd x22)) and 71.9% with MKN45 tumors (120 mg/kg (qd x22)). Also, the “growth inhibition of EBC-1 tumors” value with EBC-1 tumors (40 mg/kg (qd x17)) was 56.5%; in the test on EBC-1 tumors (80 mg/kg (qd x17)), 100%. The “growth inhibition of A549 tumors” value is 76.6% in the test with A549 tumors (60 mg/kg (qd x24)) and 96.7% in the test with A549 tumors (120 mg/kg (qd x24)). In addition, the “Activity (control) %” value at Met (h) was found to be 1%.
For the compound `O=C(Nc1ccc(Oc2ccnc3c2OCCN3)cc1)c1cccn(-c2ccc(F)cc2)c1=O` [Example 9, N-(4-(3,4-dihydro-2H-pyrido[3,2-b][1,4]oxazin-8-yloxy)phenyl)-1-(4-fluorophenyl)-2-oxo-1,2-dihydropyridine-3-carboxamide], the IC50 with NCI-H1975 cells (setting [1]) is 8.3 µM; with EBC-1 cells (setting [2]) it was 0.6 µM; in the test on MKN45 cells (MKN45 cells, 7 days, MTS) it was 1.3 µM; in the test with U87-MG cells (U87-MG cells, 7 days, MTS) it was 5.5 µM; with NCI-H1993 cells (setting [3]) it was 7.9 µM; with SNU-5 cells (SNU5 cells, 7 days, MTS) it was 2.9 µM. Moreover, the half-inhibitory concentration (IC50) in the test on A549 cells (168 h, A549 cells, 7 days, MTS) amounted to 15.7 µM. On Met (h), the “Activity (control) %” value was 6%.
As to `Cc1c(C(=O)Nc2ccc(Oc3ccnc4c3OCCN4)c(F)c2)c(=O)n(-c2ccccc2)n1C` [Example 20, N-(4-(3,4-dihydro-2H-pyrido[3,2-b][1,4]oxazin-8-yloxy)-3-fluorophenyl)-1,5-dimethyl-3-oxo-2-phenyl-2,3-dihydro-1H-pyrazole-4-carboxamide], the “Activity (control) %” value at Met (h) worked out at 45%.
